ChEMBL document CHEMBL1909046, “DrugMatrix in vitro pharmacology data”

Tests used:
[1] = DRUGMATRIX: Platelet-Derived Growth Factor (PDGF) radioligand binding (ligand: [125I] PDGF); format: cell-based; conditions: nih3t3; Not Active = under 50% inhibition at 10 µM
[2] = biological target: Sodium-dependent dopamine transporter (Homo sapiens, UniProt Q01959); assay: DRUGMATRIX: Dopamine Transporter radioligand binding (ligand: [125I] RTI-55); format: cell membranes, CHO-K1, Membrane; conditions: cho-k1; Not Active = under 50% inhibition at 10 µM
Estrogen receptor beta = Estrogen receptor beta (Homo sapiens, UniProt Q92731); conditions: sf9; further: in other assays of this panel Not Active means under 50% inhibition at 10 µM
Adenosine receptor A2a = Adenosine receptor A2a (Homo sapiens, UniProt P29274); assay: DRUGMATRIX: Adenosine A2A radioligand binding (ligand: […]); format: cell membranes, HEK293, Membrane; conditions: hek293; Not Active = under 50% inhibition at 10 µM
D(3) dopamine receptor = D(3) dopamine receptor (Homo sapiens, UniProt P35462); assay: DRUGMATRIX: Dopamine D3 radioligand binding (ligand: [3H] Spiperone); format: cell membranes, CHO, Membrane
[3] = DRUGMATRIX: Sodium/nucleoside co-transporter radioligand binding (ligand: nitrobenzylthioinosine); format: cell membranes, Cavia porcellus, Dunkin-Hartley, Cerebral cortex, Membrane; conditions: Not Active = under 50% inhibition at 10 µM
Melanocortin receptor 4 = Melanocortin receptor 4 (Homo sapiens, UniProt P32245); format: cell membranes, Membrane; conditions: hek293; further: in other assays of this panel Not Active means under 50% inhibition at 10 µM
Thromboxane-A synthase = biological target: T1, Thromboxane-A synthase (Homo sapiens, UniProt P24557); assay: biochemical; format: tissue-based, Platelet;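 further: enzyme inhibition assay with PGH2 supplied as substrate; in other assays of this panel Not Active means under 50% inhibition at 10 µM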
T1 sequence (P24557 whole entry): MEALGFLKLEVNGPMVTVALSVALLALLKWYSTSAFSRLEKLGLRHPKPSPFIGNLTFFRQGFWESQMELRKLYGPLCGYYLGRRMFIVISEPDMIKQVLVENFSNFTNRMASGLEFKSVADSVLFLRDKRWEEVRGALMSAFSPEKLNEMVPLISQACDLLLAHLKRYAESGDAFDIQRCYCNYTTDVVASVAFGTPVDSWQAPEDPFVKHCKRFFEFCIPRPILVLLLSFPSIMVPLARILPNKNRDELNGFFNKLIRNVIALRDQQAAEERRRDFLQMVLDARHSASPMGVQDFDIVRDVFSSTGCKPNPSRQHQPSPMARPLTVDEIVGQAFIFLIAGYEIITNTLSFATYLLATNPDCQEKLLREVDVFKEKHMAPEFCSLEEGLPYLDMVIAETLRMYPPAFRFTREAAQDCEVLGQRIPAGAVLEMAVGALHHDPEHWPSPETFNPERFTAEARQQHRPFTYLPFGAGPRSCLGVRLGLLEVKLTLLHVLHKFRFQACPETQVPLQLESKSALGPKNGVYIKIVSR

[4] = biological target: C-C chemokine receptor type 5 (Homo sapiens, UniProt P51681); format: cell membranes, Membrane; conditions: hek293; further: in other assays of this panel Not Active means under 50% inhibition at 10 µM
[5] = DRUGMATRIX: Purinergic P2X radioligand binding (ligand: [3H] alpha, beta-Methylene-ATP); format: cell membranes, Oryctolagus cuniculus, New Zealand albino, Urinary bladder, Membrane; conditions: Not Active = under 50% inhibition at 10 µM
Glucocorticoid receptor = biological target: T2, Glucocorticoid receptor (Homo sapiens, UniProt P04150); conditions: hela s3; further: in other assays of this panel Not Active means under 50% inhibition at 10 µM
T2 sequence (P04150 whole entry): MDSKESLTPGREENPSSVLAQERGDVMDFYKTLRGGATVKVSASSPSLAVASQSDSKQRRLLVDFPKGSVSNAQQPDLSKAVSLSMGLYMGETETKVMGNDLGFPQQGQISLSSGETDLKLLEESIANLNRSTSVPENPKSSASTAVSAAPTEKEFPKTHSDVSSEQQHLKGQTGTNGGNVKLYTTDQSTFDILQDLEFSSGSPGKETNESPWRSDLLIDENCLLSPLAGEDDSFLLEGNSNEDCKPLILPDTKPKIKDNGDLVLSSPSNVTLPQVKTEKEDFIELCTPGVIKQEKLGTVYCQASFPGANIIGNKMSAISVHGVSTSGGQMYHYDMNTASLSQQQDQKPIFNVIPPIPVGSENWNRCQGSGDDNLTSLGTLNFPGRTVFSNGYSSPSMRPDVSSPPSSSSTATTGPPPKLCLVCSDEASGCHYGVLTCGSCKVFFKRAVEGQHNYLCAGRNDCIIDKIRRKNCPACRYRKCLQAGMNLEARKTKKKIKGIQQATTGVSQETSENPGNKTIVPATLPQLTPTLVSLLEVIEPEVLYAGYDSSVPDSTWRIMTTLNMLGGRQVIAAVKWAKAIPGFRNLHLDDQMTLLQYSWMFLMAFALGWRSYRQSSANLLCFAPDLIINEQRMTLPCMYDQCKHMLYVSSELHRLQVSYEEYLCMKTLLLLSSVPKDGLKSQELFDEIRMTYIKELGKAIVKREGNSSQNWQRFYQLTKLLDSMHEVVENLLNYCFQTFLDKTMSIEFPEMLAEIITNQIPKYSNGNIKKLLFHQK

Cytochrome P450 2D6 = Cytochrome P450 2D6 (Homo sapiens, UniProt P10635); conditions: bti-tn-5b1-4; further: in other assays of this panel Not Active means under 50% inhibition at 10 µM
[6] = DRUGMATRIX: Glutamate, AMPA radioligand binding (ligand: [3H] AMPA); format: cell membranes, Rattus norvegicus, Wistar, Cerebral cortex, Membrane; conditions: Not Active = under 50% inhibition at 10 µM
[7] = biological target: T3, Muscarinic acetylcholine receptor M4 (Homo sapiens, UniProt P08173); format: cell membranes, CHO-K1, Membrane; conditions: cho-k1; further: in other assays of this panel Not Active means under 50% inhibition at 10 µM
T3 sequence (P08173 whole entry): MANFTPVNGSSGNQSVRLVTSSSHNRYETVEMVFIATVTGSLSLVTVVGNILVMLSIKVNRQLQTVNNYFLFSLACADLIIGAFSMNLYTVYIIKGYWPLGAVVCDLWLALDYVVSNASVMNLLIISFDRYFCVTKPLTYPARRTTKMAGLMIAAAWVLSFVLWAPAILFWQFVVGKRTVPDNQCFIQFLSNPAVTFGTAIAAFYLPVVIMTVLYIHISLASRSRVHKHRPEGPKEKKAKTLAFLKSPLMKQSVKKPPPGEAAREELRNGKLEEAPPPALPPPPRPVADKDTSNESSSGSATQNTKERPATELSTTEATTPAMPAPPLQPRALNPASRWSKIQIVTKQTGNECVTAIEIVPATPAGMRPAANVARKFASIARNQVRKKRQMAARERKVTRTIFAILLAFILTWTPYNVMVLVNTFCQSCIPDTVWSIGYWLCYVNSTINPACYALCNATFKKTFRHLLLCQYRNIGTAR

Cytochrome P450 2D6, sequence (P10635 whole entry): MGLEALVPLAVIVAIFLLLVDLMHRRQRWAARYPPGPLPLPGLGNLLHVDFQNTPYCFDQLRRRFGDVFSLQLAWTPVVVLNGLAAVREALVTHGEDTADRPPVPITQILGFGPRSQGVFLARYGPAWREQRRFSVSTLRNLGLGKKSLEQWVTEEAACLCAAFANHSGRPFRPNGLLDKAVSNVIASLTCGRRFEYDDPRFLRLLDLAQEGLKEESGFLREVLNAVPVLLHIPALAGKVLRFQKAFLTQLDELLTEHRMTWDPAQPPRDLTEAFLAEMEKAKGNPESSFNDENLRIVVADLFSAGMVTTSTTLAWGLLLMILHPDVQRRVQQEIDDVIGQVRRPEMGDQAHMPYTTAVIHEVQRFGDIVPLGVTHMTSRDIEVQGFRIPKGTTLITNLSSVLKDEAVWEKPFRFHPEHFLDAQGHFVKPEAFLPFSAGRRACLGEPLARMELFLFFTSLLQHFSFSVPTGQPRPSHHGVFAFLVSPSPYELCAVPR
D(3) dopamine receptor, sequence (P35462 whole entry): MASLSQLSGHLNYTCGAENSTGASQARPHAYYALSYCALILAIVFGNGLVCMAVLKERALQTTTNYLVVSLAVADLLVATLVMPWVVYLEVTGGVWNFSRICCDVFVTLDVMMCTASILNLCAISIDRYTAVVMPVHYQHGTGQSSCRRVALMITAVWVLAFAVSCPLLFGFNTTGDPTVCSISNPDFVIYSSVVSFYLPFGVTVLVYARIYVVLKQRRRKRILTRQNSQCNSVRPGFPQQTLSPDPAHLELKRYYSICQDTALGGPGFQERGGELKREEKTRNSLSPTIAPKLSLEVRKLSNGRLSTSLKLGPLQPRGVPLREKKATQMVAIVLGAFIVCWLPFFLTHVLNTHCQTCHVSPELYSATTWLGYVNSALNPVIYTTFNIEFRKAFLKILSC
C-C chemokine receptor type 5, sequence (P51681 whole entry): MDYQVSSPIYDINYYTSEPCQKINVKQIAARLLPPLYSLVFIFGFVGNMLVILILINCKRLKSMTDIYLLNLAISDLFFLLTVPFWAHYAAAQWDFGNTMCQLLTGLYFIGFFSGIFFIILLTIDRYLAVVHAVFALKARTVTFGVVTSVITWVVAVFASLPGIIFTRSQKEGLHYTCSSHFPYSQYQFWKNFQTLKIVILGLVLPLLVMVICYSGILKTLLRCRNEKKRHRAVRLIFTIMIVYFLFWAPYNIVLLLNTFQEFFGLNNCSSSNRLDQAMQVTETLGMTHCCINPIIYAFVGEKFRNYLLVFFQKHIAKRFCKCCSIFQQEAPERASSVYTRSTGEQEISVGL
Estrogen receptor beta, sequence (Q92731 whole entry): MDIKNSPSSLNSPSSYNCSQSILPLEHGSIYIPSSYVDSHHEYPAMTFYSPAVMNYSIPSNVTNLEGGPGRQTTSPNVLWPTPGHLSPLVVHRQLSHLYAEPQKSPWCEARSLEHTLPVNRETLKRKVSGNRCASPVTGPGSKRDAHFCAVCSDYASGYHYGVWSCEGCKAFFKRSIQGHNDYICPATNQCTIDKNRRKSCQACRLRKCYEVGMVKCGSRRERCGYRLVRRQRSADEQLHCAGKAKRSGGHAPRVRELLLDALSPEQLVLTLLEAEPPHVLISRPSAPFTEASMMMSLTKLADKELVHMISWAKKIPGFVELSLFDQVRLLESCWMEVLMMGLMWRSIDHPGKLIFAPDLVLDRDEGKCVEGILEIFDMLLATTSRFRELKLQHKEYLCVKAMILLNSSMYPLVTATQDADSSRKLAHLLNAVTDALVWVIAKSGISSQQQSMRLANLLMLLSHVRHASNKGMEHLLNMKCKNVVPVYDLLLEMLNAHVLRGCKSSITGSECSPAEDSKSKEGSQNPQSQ
Sodium-dependent dopamine transporter, sequence (Q01959 whole entry): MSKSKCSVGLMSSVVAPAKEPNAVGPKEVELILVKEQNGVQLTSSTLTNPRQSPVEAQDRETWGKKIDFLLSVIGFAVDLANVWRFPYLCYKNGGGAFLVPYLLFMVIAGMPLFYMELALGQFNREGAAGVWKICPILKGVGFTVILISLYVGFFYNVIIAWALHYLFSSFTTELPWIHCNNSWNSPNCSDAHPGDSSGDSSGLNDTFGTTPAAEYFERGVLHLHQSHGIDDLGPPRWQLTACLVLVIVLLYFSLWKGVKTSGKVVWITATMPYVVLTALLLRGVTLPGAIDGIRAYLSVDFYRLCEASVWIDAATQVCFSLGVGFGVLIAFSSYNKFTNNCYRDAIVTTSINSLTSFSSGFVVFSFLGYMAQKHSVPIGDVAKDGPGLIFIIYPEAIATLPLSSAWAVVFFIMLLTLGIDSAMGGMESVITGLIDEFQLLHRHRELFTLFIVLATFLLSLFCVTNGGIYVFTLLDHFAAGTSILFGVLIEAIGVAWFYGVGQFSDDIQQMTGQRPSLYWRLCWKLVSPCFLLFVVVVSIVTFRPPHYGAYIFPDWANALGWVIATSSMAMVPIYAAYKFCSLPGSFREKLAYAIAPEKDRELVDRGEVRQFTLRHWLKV
Melanocortin receptor 4, sequence (P32245 whole entry): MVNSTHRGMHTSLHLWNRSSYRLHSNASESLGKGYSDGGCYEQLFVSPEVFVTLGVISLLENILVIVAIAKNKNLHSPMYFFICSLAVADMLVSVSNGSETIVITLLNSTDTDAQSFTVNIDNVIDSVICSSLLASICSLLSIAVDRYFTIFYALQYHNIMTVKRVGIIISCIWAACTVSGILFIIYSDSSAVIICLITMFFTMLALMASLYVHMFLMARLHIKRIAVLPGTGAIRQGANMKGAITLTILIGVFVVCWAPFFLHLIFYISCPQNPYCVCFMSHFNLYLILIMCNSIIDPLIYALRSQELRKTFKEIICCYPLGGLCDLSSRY
Adenosine receptor A2a, sequence (P29274 whole entry): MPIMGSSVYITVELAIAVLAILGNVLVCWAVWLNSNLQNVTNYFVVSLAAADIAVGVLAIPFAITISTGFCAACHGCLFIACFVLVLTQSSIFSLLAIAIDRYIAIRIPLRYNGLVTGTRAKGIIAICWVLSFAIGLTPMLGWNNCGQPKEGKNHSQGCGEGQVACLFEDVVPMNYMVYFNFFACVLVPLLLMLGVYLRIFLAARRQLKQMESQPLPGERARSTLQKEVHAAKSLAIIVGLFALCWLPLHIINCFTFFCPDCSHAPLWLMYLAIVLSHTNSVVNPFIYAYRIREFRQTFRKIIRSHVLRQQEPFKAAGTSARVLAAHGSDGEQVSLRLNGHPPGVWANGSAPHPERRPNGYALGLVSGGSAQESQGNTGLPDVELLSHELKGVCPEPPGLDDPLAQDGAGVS

Row | Structure (SMILES) | IC50 [1] | Ki [1] | IC50 [2] | IC50 (Estrogen receptor beta) | IC50 (Adenosine receptor A2a) | IC50 (D(3) dopamine receptor; cho) | IC50 [3] | Ki [3] | IC50 (Melanocortin receptor 4) | IC50 (Thromboxane-A synthase; platelet) | IC50 [4] | IC50 [5] | Ki [5] | IC50 (Glucocorticoid receptor) | IC50 (Cytochrome P450 2D6) | Ki (Cytochrome P450 2D6) | IC50 [6] | Ki [6] | IC50 [7] | also measured
1 | C=C1CC[C@H](O)C/C1=C/C=C1\CCC[C@]2(C)[C@@H]([C@H](C)/C=C/[C@H](C)C(C)C)CC[C@@H]12 [ERGOCALCIFEROL] | Not Active | Not Active | Not Active | Not Active | Not Active | Not Active | Not Active | Not Active | Not Active | Not Active | Not Active | Not Active | Not Active | Not Active | Not Active | Not Active | Not Active | Not Active | Not Active | 
2 | CCC1(c2ccccc2)C(=O)NCNC1=O [PRIMIDONE] | Not Active | Not Active | Not Active | Not Active | Not Active | Not Active | Not Active | Not Active | Not Active | Not Active | Not Active | Not Active | Not Active | Not Active | Not Active | Not Active | Not Active | Not Active | Not Active | 
3 | N#C[C@H](O[C@@H]1O[C@H](CO[C@@H]2O[C@H](CO)[C@@H](O)[C@H](O)[C@H]2O)[C@@H](O)[C@H](O)[C@H]1O)c1ccccc1 [AMYGDALIN] | Not Active | Not Active | Not Active | Not Active | Not Active | Not Active | Not Active | Not Active | Not Active | Not Active | Not Active | Not Active | Not Active | Not Active | Not Active | Not Active | Not Active | Not Active | Not Active | 
4 | CN1C[C@H](C(=O)N[C@]2(C)O[C@@]3(O)[C@@H]4CCCN4C(=O)[C@H](Cc4ccccc4)N3C2=O)C=C2c3cccc4[nH]cc(c34)C[C@H]21 [ERGOTAMINE] | Not Active | Not Active | Not Active | Not Active | Not Active |  | Not Active | Not Active | Not Active |  | Not Active | Not Active | Not Active | Not Active | Not Active | Not Active | Not Active | Not Active | Not Active | IC50 (D(3) dopamine receptor; read-out: IC50): 4.31 nM; Ki (D(3) dopamine receptor; read-out: Ki): 1.46 nM; IC50 (Thromboxane-A synthase; read-out: IC50): 3060 nM
5 | C=C(C)[C@@H]1[C@H]2OC(=O)[C@@H]1[C@]1(O)C[C@H]3O[C@]34C(=O)O[C@H]2[C@]14C [PICROTOXININ] | Not Active | Not Active | Not Active | Not Active | Not Active | Not Active | Not Active | Not Active | Not Active | Not Active | Not Active | Not Active | Not Active | Not Active | Not Active | Not Active | Not Active | Not Active | Not Active | 
6 | c1ccc2c(c1)cc1ccc3cccc4ccc2c1c34 | Not Active | Not Active | Not Active | Not Active | Not Active | Not Active | Not Active | Not Active | Not Active | Not Active | Not Active | Not Active | Not Active | Not Active | Not Active | Not Active | Not Active | Not Active | Not Active | 
7 | CC[C@@]1(O)C(=O)OCc2c1cc1n(c2=O)Cc2cc3ccccc3nc2-1 [CAMPTOTHECIN] | Not Active | Not Active | Not Active | Not Active | Not Active | Not Active | Not Active | Not Active | Not Active | Not Active | Not Active | Not Active | Not Active | Not Active | Not Active | Not Active | Not Active | Not Active | Not Active | 
8 | CCOC(=O)c1ccc(N)cc1 [BENZOCAINE] | Not Active | Not Active | Not Active | Not Active | Not Active | Not Active | Not Active | Not Active | Not Active | Not Active | Not Active | Not Active | Not Active | Not Active | Not Active | Not Active | Not Active | Not Active | Not Active | 
